How the values were obtained:
Untransfected cells = assay: Radioligand binding assay, untransfected cells
nGPCR-51 = biological target: T1, nGPCR-51 (Homo sapiens, UniProt Q969V1); assay: Radioligand saturation binding assay, membranes of cells transiently expressing nGPCR-51
T1 construct: expressed in transfected cells
Protocol: HEK 293 or COS 7 cells transiently expressing nGPCR-51, or CHO K-I cells stable expressing nGPCR-51, were grown to sub-confluence (2 days post-transfection for transients), harvested from flasks in Dulbecco's PBS and pelleted by low speed centrifugation (2500 rpm) for 10 minutes. Cell pellets were homogenized in 10 ml tissue buffer (50 mM Hepes, 10 mM MgCl2, 2 mM EGTA, 1 μg/ml aprotinin, 1 μg/ml leupeptin hemisulfate, 1 μg/ml pepstatin A, pH 7.0) using a dounce, 10 strokes. Homogenate was centrifuged at 47,000× g for 15 minutes. Membrane pellet was resuspended in 1 ml tissue buffer using the dounce, 10 strokes. An aliquot of the membrane preparation was used to determine protein concentration. For measurement of saturation binding, 10 μg of cell membranes were incubated with various concentrations of [^125I] Peptide A (iodinated by routine procedures via the Tyr residue) in 300 μl binding assay buffer (tissue buffer plus 0.15 mM Bacitracin and 0.1% ovalbumin) for 90 minutes at room temperature in 96-well plates. Non-specific binding was defined by the inclusion of 1 μM Peptide A. After the binding incubation, plates were harvested onto GF/C filters presoaked in 0.3% non-fat dry milk. […] Filter plates were then counted in a Packard Topcount™ 96-well microplate scintillation counter. Data were analyzed using GraphPad Prism (San Diego, Calif.) and Kd and Bmax values were calculated.

T1 sequence (Q969V1 whole entry): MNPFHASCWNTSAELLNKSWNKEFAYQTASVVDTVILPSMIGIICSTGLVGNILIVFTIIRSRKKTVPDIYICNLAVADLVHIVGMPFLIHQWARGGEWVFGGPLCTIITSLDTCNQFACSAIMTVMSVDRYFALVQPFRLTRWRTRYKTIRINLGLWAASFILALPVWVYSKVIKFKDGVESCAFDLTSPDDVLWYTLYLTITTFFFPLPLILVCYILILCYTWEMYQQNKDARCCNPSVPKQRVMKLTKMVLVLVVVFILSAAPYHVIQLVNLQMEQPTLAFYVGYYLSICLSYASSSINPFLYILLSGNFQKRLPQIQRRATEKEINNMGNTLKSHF

Q: For `CSCC[C@@H]1NC(=O)[C@@H](NC(=O)[C@H](CCCNC(=N)N)NC(=O)[C@H](CC(C)C)NC(=O)[C@H](CCSC)NC(=O)[C@H](CC(=O)O)NC(=O)[C@H](Cc2ccccc2)NC(=O)[C@@H](N)CC(=O)O)CSSC[C@@H](C(=O)N[C@@H](Cc2c[nH]c3ccccc23)C(=O)N[C@@H](CCC(N)=O)C(=O)N[C@H](C(=O)O)C(C)C)NC(=O)[C@@H]2CCCN2C(=O)[C@H](CCCNC(=N)N)NC(=O)[C@H](Cc2ccc(O)c(I)c2)NC(=O)[C@H](C(C)C)NC(=O)[C@H](CCCNC(=N)N)NC(=O)CNC(=O)[C@H](CC(C)C)NC1=O` [[^125I] Peptide A], which specific radioligand binding (Untransfected cells) is on record?
A: no specific radioligand binding

Q: What about the Bmax (nGPCR-51; COS 7 cells transiently expressing nGPCR-51) of the same compound?
A: 75 finol/mg

Q: And the “estimated Bmax” value (nGPCR-51; HEK 293 cells transiently expressing nGPCR-51)?
A: ~108 fmol/mg

Reference: US20030003451A1, “Novel G protein-coupled receptors” (priority 2000, published 2003)
